Test results as given in patent publication US20220175777A1, “Inhibitors of Multidrug Resistance Transporter P-Glycoprotein” (Southern Methodist University, priority 2014, published 2022).

Legend:
[1] = molecular target: T1, Cysteineless Mouse MDR3 P-glycoprotein (Mus musculus, UniProt P21447, C1070A/C1121A/C1223A/C133A/C427A/C638A/C669A/C713A/C952A); test: ATP hydrolysis by purified P-glycoprotein, basal and verapamil-stimulated; assay type: biochemical; conditions: in the presence of verapamil
T1 construct: made in house; host or cells: Pichia pastoris
Description: The efficacy of molecules identified using in silico methods to function as potential inhibitors of P-glycoprotein was initially tested with regard to their capability to inhibit ATP hydrolysis by purified P-glycoprotein. For this purpose, a well-established activity assay for ATP hydrolyzing enzymes that uses the oxidation of NADH to NAD+ through coupling the reactions of pyruvate kinase and lactate dehydrogenase to the hydrolysis of ATP was adapted to medium throughput conditions on 96 well plates. […] In this set-up, the effects of potential small molecule inhibitors on the ATP hydrolysis activity of P-glycoprotein were tested in duplicate or triplicate and were repeated at least two times using different enzyme preparations.
The P-glycoprotein used in these assays was a close relative of the human P-glycoprotein that is found in mice. A mutant version of the mouse P-glycoprotein where all intrinsic cysteine amino acids had been replaced by alanine residues was recombinantly expressed in the yeast Pichia pastoris and used for these initial tests. […] Prior to testing the ATP-hydrolysis activity, P-glycoprotein was incubated with phosphatidyl choline for stabilization of the enzyme during the assay.
Different concentrations of the to-be-tested small molecules were added and pre-incubated at 37° C. The ATP hydrolysis reaction was then started by adding equal volume of double concentrated ATPase cocktail. The final ATP concentration in the reaction was 2 mM. The reaction was allowed to proceed for 20 minutes, the rate of ATP hydrolysis was calculated using the molar extinction coefficient of NADH, and the one-to-one relationship of ATP hydrolyzed and NADH oxidized.
Evaluation of mode of inhibition of P-glycoprotein by Group 1 and Group 2 variants of compound 29. To assess the mode of inhibition of P-gp by the novel variants of P-gp inhibitor 29, ATP hydrolysis by P-gp was evaluated in the presence or absence of the variants. […] Murine P-gp (MDR3) expressed in Pichia pastoris that had all naturally occurring cysteines replaced with alanine, was used^45, 46. It is widely assumed that the ATP hydrolytic rate of P-gp is stimulated in the presence of transport substrates when compared to ATP hydrolysis in the absence of transport substrates. Assays comparing these rates can therefore be useful not only in identifying inhibitors of P-gp catalyzed ATP hydrolysis, but also to potentially infer whether a compound might be a transport substrate if basal ATPase rates are stimulated by the addition of a compound.

[2] = molecular target: T1, Cysteineless Mouse MDR3 P-glycoprotein; test: SL-ATP binding to P-gp by ESR spectroscopy; conditions: 50 microM inhibitor compound
Description: Determination of the possible mode of ATP hydrolysis inhibition by the identified P-glycoprotein inhibitors. The mode of hydrolysis of ATP by P-glycoprotein was investigated by measuring the maximal binding stoichiometry and binding affinity of an analog of ATP, SL-ATP, and by Electron Spin Resonance (ESR) spectroscopy, similar to in both the presence and absence of the identified inhibitors.
The high-field signal of the freely mobile, unbound SL-ATP is compared and is used to calculate the amount of ATP-analog bound to P-glycoprotein. Binding of SL-ATP in the absence of any P-glycoprotein inhibitor saturated at about 2 mol of SL-nucleotide bounds per mol of P-glycoprotein.
FIGS. 2A-2D are plots showing the effects of P-glycoprotein ATP hydrolysis inhibitors on nucleotide binding. Between 30 and 50 microM Pgp were incubated with 50 microM inhibitor compound. Increasing amounts of SL-ATP were added. The ESR signal of the free SL-ATP in the presence of P-glycoprotein and inhibitor was compared to that in the absence of P-glycoprotein. The graphs represent at least 3 individual studies each using 3 to 5 different P-glycoprotein preparations.

[3] = tested on: HFL1; test: Intrinsic toxicity, MTT survival; assay type: cell-based; conditions: Homo sapiens, 48 hours, ± standard error
Procedure: (§1) Percent survival determined by MTT assay calculated relative to cells treated with equal volume DMSO vehicle and represent the mean±SEM from 2-4 separate studies, each study performed in triplicate wells.
The intrinsic in vitro toxicities of identified compounds were evaluated to determine their potential therapeutic window. This was assessed in a noncancerous cell line (HFL1) and the human prostate cancer cell lines DU145 and the MDR sub-line DU145TxR. The potential toxicity of the compounds were assessed at concentrations that centered around 25 μM.

[4] = tested on: DU145; test: Intrinsic toxicity, MTT survival; assay type: cell-based; conditions: Homo sapiens, DU-145, 48 hours, ± standard error
Procedure: as §1
(§2) The intrinsic in vitro toxicities of identified compounds were evaluated to determine their potential therapeutic window. This was assessed in a noncancerous cell line (HFL1) and the human prostate cancer cell lines DU145 and the MDR sub-line DU145TxR.

[5] = tested on: DU145TXR; test: Intrinsic toxicity, MTT survival; assay type: cell-based, human; conditions: Homo sapiens; intrinsic toxicity, 48 hours, MTT; ± standard error
Procedure: as §1, §2

[6] = tested on: DU145TXR; test: Potentiation of 500 nM paclitaxel cytotoxicity (MTT); assay type: cell-based, human
Procedure: FIGS. 4A and 4B show the in silico identified P-gp inhibitors potentiate the cytotoxic effects of paclitaxel in the MDR human prostate cancer cell line DU145TxR. […] Values represent the mean±SEM of at least two separate experiments performed in triplicate.
A range of experimental inhibitor concentrations was added in the presence of 500 nM paclitaxel and the cell viability was assessed using the MTT assay.
In order to compare the efficacy of inhibitors, the potentiation concentration of inhibitor resulting in 50% reduction in cell viability, PC50, in the presence of 500 nM paclitaxel was calculated from the data in FIG. 4A.

[7] = tested on: DU145TXR; test: Dose dependent sensitization of MDR cell line to paclitaxel (MTT); assay type: cell-based, human; conditions: 25 μM compound
Procedure: FIGS. 6A to 6C show the dose dependent sensitization of MDR prostate cancer cell line DU145TxR. […] For reference, the DU145TxR (closed circle) and DU145 (open circle) incubated with paclitaxel only are also included. Values are mean±SEM from at least 2 separate experiments performed in triplicate wells. The data were normalized to the intrinsic toxicities as determined in studies from FIGS. 5A to 5C of each of the compounds for each of the corresponding concentrations.
Dose Dependent Sensitization of MDR Prostate Cancer Cell Line: To determine the degree to which the MDR prostate cancer cell line DU145TxR could be sensitized to paclitaxel the inventors determined cell survival at increasing concentrations of paclitaxel in the presence of three concentrations of P-gp inhibitors. FIGS. 6A, 6B and 6C show the survival of DU145TxR at increasing concentration of paclitaxel in the presence of 5 μM, 10 μM and 25 μM of the experimental compounds, respectively. The open circles represent the parental DU145 cell line in the presence of paclitaxel without addition of any inhibitor compound. The closed circles represent the survival of the multidrug resistant DU145TxR in the presence of paclitaxel alone. […] At that concentration over 10-fold increase in paclitaxel sensitivity in DU145TxR is observed compared to DU145TxR without P-gp inhibitors. Doubling the concentration of the compounds to 10 μM approximately doubled the DU145TxR sensitivity to paclitaxel.

[8] = tested on: DU145-TxR; test: Re-sensitization to Paclitaxel or Doxorubicin at 25 μM compound (MTT); assay type: cell-based, human; conditions: 48 hours
Procedure: FIGS. 3A-3B are plots that show an example of the re-sensitization of a multidrug resistant prostate cancer cell line to two different chemotherapeutics using the prostate cancer derived cell line, DU145 and the multidrug-resistant variant, DU145-TxR. […] Cell viability was measured by the MTT (3-(4,5-dimethylthiazol-2-yl)-2,5-diphenyl tetrazolium bromide assay conducted as described previously. After 48 hours of treatment with Paclitaxel or Doxorubicin alone or in the presence of 25 μM compound 29, 34, or 45 media was removed and cells were washed twice with phosphate buffered saline (PBS) and MTT assay was conducted 24 hours later. Data expressed as mean±SEM.

[9] = tested on: A2780; test: Hyper-sensitization of ovarian cancer cells to doxorubicin; assay type: cell-based; conditions: not chemotherapy resistant A2780
Description: Hyper-sensitization of cancers to chemotherapeutics. […] The sensitivity of normal, not chemotherapy resistant A2780 ovarian cancer cell lines to doxorubicin was increased by several orders of magnitude in these assays.

[10] = molecular target: T1, Cysteineless Mouse MDR3 P-glycoprotein; conditions: ESR data of Brewer et al. (2014); cited from earlier work

T1 sequence (P21447 whole entry C133A/C427A/C638A/C669A/C713A/C952A/C1070A/C1121A/C1223A): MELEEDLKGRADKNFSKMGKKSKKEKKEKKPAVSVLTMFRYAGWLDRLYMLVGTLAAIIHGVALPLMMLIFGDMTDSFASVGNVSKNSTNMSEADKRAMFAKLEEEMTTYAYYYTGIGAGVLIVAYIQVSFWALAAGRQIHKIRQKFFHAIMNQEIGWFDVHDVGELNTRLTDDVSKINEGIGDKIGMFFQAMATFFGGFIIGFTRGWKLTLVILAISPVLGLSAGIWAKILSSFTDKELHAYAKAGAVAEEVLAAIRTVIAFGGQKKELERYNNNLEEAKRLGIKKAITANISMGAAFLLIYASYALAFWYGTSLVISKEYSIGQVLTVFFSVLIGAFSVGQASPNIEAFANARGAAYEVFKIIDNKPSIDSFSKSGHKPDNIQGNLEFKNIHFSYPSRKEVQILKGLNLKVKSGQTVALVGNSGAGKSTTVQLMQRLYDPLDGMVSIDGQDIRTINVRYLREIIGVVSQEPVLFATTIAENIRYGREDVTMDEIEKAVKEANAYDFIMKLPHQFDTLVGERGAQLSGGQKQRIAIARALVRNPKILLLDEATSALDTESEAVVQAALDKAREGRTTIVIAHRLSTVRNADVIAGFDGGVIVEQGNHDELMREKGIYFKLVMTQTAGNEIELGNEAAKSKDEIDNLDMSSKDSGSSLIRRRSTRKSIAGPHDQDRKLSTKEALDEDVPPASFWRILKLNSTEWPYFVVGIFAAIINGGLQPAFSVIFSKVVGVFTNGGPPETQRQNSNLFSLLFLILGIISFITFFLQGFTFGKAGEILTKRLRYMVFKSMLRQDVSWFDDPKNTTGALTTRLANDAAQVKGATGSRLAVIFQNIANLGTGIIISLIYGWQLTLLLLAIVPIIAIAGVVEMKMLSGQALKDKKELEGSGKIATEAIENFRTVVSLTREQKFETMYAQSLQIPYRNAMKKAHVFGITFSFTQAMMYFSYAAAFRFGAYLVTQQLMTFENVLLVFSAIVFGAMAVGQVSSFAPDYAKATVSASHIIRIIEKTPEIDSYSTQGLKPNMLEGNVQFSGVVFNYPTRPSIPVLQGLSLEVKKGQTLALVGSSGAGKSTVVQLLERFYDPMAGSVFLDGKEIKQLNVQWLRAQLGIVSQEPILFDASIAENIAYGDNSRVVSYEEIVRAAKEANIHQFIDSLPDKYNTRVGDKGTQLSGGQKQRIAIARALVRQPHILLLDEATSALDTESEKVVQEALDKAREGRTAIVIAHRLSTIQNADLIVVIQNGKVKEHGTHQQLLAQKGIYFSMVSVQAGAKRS

Effect on stimulated ATPase [1]: significantly inhibit | Effect on SL-ATP binding [2]: decreased the SL-ATP binding affinities
Compound: CCC(C(=O)N1CCN(c2ccc(OC)cc2)CC1)n1nc(C)c2sc3ccccc3c2c1=O (centres unmarked) [SMU-34, 2-[1-[4-(4-methoxyphenyl)piperazin-1-yl]-1-oxobutan-2-yl]-4-methyl-[1]benzothiolo[2,3-d]pyridazin-1-one]
IC50 [3]: 85.2 ± 0.04 µM | IC50 [4]: 47.2 ± 0.02 µM | IC50 [5]: 200.3 ± 0.17 µM | Effect on paclitaxel sensitivity ([6]; 50 nM-25 μM inhibitor with 500 nM paclitaxel): strongly affected the sensitivity | EC50 ([6]; in the presence of 500 nM paclitaxel, 48 hours, read-out: PC50, potentiation concentration of inhibitor resulting in 50% reduction in cell viability): 570 ± 3 nM | Sensitization to paclitaxel [7]: 1200 fold | Chemotherapeutic sensitivity of MDR cell line (Paclitaxel or Doxorubicin) [8]: restores chemotherapeutic sensitivity | Sensitivity to doxorubicin [9]: hyper-sensitized | Effect on SL-ANP binding [10]: reduce the number of binding sites
